Results published in US20240254138A1, “TRICYCLIC PYRIMIDINES AS CYCLIN-DEPENDENT KINASE 7 (CDK7) INHIBITORS” (JANSSEN PHARMACEUTICA NV, priority 2021, published 2024).
Read-outs that look alike come from different tables or passages of the source.

What was measured:
[1] = system: RNA Polymerase II Serine 5 phosphorylation in A549 cells overexpressing CDK7-mutant (C312S); assay: Imaging-based cellular RNA PolII Ser5 phosphorylation assay in A549 cells overexpressing CDK7-mutant (C312S); assay type: cell-based, human; details: RNA PolII Ser5 phosphorylation, averaged over all measurements; for CDK7_A549 mutant hCDK7(pIC50): A549 cells overexpressing CDK7-mutant (C312S); for IC50: Homo sapiens, A549, A549 cells overexpressing CDK7-mutant (C312S), read-out: CDK7_A549 mutant hCDK7(pIC50) (converted)
How it was run: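 A549 cells overexpressing CDK7 C312S (with endogenous wild-type CDK7) were treated with compound for 3 h at 37 °C in 1% FBS medium. Phospho-Rpb1 CTD Ser5 was immunostained after fixation and imaged. IC50 came from curve fit of % control, normalised to DMSO and 10 μM reference-compound controls.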

[2] = target: CDK7/cyclinH/MAT1 trimeric complex (Homo sapiens, UniProt P50613); assay: In vitro CDK7 assay, potency of irreversible covalent inhibitors (kinact/KI), coupled PK/LDH ADP readout at 340 nm; details: for CDK7 (20 nM enz.) (kinact, s^−1) / CDK7 (20 nM enz.) (kinact/KI, M^−1*s^−1) / Ki / CDK7 (20 nM enz.) (kobs/[I], M^−1*s^−1): 20 nM enzyme; for Ki: CDK7 (20 nM enz.) (KI, μM); for kinact: read-out: CDK7 (20 nM enz.) (kinact, s^−1), 20 nM enzyme
Chain of CDK7/cyclinH/MAT1 trimeric complex (P50613 whole entry): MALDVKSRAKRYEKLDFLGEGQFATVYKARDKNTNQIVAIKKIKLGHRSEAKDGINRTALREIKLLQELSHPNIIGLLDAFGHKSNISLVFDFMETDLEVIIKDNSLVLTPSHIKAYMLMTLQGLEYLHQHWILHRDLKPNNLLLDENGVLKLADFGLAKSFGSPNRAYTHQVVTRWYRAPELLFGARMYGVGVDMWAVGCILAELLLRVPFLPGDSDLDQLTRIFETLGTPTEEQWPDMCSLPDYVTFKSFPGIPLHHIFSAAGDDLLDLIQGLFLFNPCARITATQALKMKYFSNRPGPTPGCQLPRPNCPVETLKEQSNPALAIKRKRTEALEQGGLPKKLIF
Chain of CDK7/cyclinH/MAT1 trimeric complex (P51946 whole entry partner): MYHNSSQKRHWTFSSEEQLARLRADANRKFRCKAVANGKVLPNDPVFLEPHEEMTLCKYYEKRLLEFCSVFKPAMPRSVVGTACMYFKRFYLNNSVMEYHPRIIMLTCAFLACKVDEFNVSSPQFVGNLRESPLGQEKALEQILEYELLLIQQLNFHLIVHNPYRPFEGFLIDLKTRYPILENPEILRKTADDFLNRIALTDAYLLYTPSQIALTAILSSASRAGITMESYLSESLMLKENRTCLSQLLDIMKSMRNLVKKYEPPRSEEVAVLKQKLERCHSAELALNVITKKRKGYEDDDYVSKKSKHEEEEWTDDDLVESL
Chain of CDK7/cyclinH/MAT1 trimeric complex (P51948 whole entry partner): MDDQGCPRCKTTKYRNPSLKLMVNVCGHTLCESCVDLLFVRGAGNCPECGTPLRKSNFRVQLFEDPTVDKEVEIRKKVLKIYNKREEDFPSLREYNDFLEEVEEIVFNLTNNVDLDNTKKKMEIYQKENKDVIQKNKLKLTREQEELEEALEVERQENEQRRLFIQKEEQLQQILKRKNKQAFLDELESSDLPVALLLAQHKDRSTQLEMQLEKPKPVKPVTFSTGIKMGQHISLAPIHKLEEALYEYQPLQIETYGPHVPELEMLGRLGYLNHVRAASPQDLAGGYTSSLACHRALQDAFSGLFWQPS

[3] = system: RNA Polymerase II Serine 5 phosphorylation (Rpb1 CTD, downstream substrate of CDK7) in A549 cells; assay: Imaging-based cellular RNA PolII Ser5 phosphorylation assay in A549 cells; assay type: cell-based, human; details: wild-type CDK7, RNA PolII Ser5 phosphorylation, averaged over all measurements; for CDK7_A549 Wild-type CDK7 (pIC50): A549 cells; for IC50: Homo sapiens, A549, A549 cells, read-out: CDK7_A549 Wild-type CDK7 (pIC50) (converted)
How it was run: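 A549 cells, seeded 1000/well in DMEM with 1% FBS and cultured 20 h, were treated with compound for 3 h at 37 °C. Ser5-phospho-Rpb1 CTD detected by immunofluorescence imaging after fixation and methanol permeabilization; IC50 from curve fit normalized to DMSO and 10 μM reference-compound controls.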

[4] = read-out: CDK7 (20 nM enz.) (kinact/KI, M^−1*s^−1), 20 nM enzyme
[5] = read-out: CDK7 (20 nM enz.) (kobs/[I], M^−1*s^−1), 20 nM enzyme

| SMILES | CDK7_A549 mutant hCDK7(pIC50) [1] | CDK7 (20 nM enz.) (kinact, s^−1) [2] | CDK7 (20 nM enz.) (kinact/KI, M^−1*s^−1) [2] | Ki [2] | CDK7_A549 Wild-type CDK7 (pIC50) [3] | IC50 [1] | kinact [2] | kinact/KI [2, 4] | IC50 [3] | CDK7 (20 nM enz.) (kobs/[I], M^−1*s^−1) [2] | kinact/KI [2, 5] |
| --- | --- | --- | --- | --- | --- | --- | --- | --- | --- | --- | --- |
| C=CC(=O)N1CC(N2CCC(c3cc4c(c(C)n3)OCc3c(N5CCOCC5)ccnc3N4)CC2)C1 [Compound 217] | <5 | 8.548e-05 s⁻¹ | 845.246 M⁻¹ s⁻¹ | 0.101 µM | 7.15 | – | – | – | – | – | – |
| C=CC(=O)N1CC[C@H](N2CC(c3cc4c(c(C)n3)OCc3c(N5CCOCC5)ccnc3N4)C2)[C@H](F)C1 [Compound 225] | – | – | – | 0.337 µM | – | > 10000 nM | 6.24e-05 s⁻¹ | 185 M⁻¹ s⁻¹ | 126 nM | – | – |
| C=CC(=O)N1CC(N2CC(c3cc4c(c(C(F)(F)F)n3)OCc3c(N5CCOCC5)ccnc3N4)C2)C1 [Compound 235] | – | – | – | – | – | 9550 nM | – | – | 70.8 nM | 962.5 M⁻¹ s⁻¹ | – |
| C=CC(=O)N1CC(N2CCN(c3cc4c(c(C)n3)OCc3c(N5CCOCC5)ccnc3N4)CC2)C1 [Compound 237] | – | – | – | 0.0731 µM | – | > 10000 nM | 3.42e-05 s⁻¹ | 468 M⁻¹ s⁻¹ | 132 nM | – | – |
| C=CC(=O)N1CC(n2cc(-c3cc4c(c(C)n3)OCc3c(N5CCOCC5)ccnc3N4)cn2)C1 [Compound 244] | – | – | – | 0.0398 µM | – | ~7940 nM | 4.37e-05 s⁻¹ | 1100 M⁻¹ s⁻¹ | 72.4 nM | – | – |
| C=CC(=O)N1CC(N2CCN(c3cc4c(cn3)OCc3c(N5CCOCC5)ccnc3N4)CC2)C1 [Compound 248] | – | – | – | 0.307 µM | – | > 10000 nM | 8.51e-05 s⁻¹ | 277 M⁻¹ s⁻¹ | 174 nM | – | – |
| C=CC(=O)N1CCC2(CC1)CC(c1cc(F)c3c(c1)Nc1nccc(N4CCOCC4)c1CO3)C2 [Compound 250] | – | – | – | 0.564 µM | – | > 10000 nM | 1.06e-05 s⁻¹ | 18.9 M⁻¹ s⁻¹ | 1820 nM | – | – |
| C=CC(=O)N1CC(N2CC(c3cc(C#N)c4c(c3)Nc3nccc(N5CCOCC5)c3CO4)C2)C1 [Compound 253] | – | – | – | – | – | 6310 nM | – | – | 50.1 nM | – | 989 M⁻¹ s⁻¹ |
| C=CC(=O)N1CC(N2CCC(c3ccc4c(c3)Nc3nccc(-c5cnn(C)c5)c3C(C)(C)O4)CC2)C1 [Compound 260] | <5 | 4.64e-05 s⁻¹ | 1810.44 M⁻¹ s⁻¹ | 0.0256 µM | 7.1 | – | – | – | – | – | – |
| C=CC(=O)N1CC(N2CC(c3cc4c(c(C)n3)OC(C)c3c(N5CCOCC5)ccnc3N4)C2)C1 (stereo not shown) [Compound 264] | – | – | – | 0.0439 µM | – | > 10000 nM | 3.44e-05 s⁻¹ | 782 M⁻¹ s⁻¹ | ~138 nM | – | – |
| C=CC(=O)N1CC(N2CC(c3cc4c(c(C(F)(F)F)c3)OCc3c(N5CCOCC5)ccnc3N4)C2)C1 [Compound 267] | – | – | – | – | – | ~7240 nM | – | – | 23.4 nM | – | 977 M⁻¹ s⁻¹ |
| CC#CC(=O)N1CC(N2CCC(c3ccc4c(c3)Nc3nccc(C5CCOCC5)c3CO4)CC2)C1 [Compound 269] | – | – | – | 0.103 µM | – | > 10000 nM | 4.28e-05 s⁻¹ | 417 M⁻¹ s⁻¹ | 162 nM | – | – |
| C=CC(=O)N1CC(N2CC(c3cc4c(c(C)n3)OCc3c(N5CCOCC5)ccnc3N4)C2)C1 [Compound 273] | <5 | 4.486e-05 s⁻¹ | 945.57 M⁻¹ s⁻¹ | 0.0474 µM | 6.94 | – | – | – | – | – | – |
| CC#CC(=O)N1CCC(N2CC(c3cc(C)c4c(c3)Nc3nccc(C5CCOCC5)c3CO4)C2)C1 (stereo not shown) [Compound 274] | – | – | – | 0.0714 µM | – | > 10000 nM | 3.45e-05 s⁻¹ | 483 M⁻¹ s⁻¹ | 174 nM | – | – |
| C=CC(=O)N1CC(N2CCC(c3cc4c(c(-c5ncc[nH]5)c3)OCc3c(N5CCOCC5)ccnc3N4)CC2)C1 [Compound 275] | – | – | – | – | – | > 10000 nM | – | – | 87.1 nM | – | 921 M⁻¹ s⁻¹ |
| CC#CC(=O)N1CC(c2nc(C)c(-c3cc4c(c(C)n3)OCc3c(N5CCOCC5)ccnc3N4)c(C)n2)C1 [Compound 278] | – | – | – | 0.226 µM | – | > 10000 nM | 3.13e-05 s⁻¹ | 139 M⁻¹ s⁻¹ | 166 nM | – | – |
| C=CC(=O)N1CC(n2cc(-c3cc(C#N)c4c(c3)Nc3nccc(N5CCOCC5)c3CO4)cn2)C1 [Compound 285] | – | – | – | – | – | 1860 nM | – | – | 19.5 nM | – | 964 M⁻¹ s⁻¹ |
| C=CC(=O)N1CC(N2CC(c3cc4c(c(C#N)n3)OCc3c(N5CCOCC5)ccnc3N4)C2)C1 [Compound 290] | – | – | – | 0.0265 µM | – | > 10000 nM | 3.61e-05 s⁻¹ | 1360 M⁻¹ s⁻¹ | 295 nM | – | – |
| C=CC(=O)N1CC(N2CCC(c3cc4c(c(C#N)n3)OCc3c(-c5cnn(C)c5)ccnc3N4)CC2)C1 [Compound 298] | – | – | – | 0.0311 µM | – | > 10000 nM | 8.92e-05 s⁻¹ | 2870 M⁻¹ s⁻¹ | 263 nM | – | – |
| C=CC(=O)N1CCC(N2CC(c3cc4c(c(C)n3)OCc3c(N5CCOCC5)ccnc3N4)C2)CC1 [Compound 303] | – | – | – | 0.0492 µM | – | 6170 nM | 2.35e-05 s⁻¹ | 477 M⁻¹ s⁻¹ | 91.2 nM | – | – |
| CC#CC(=O)N1CCC(N2CC(c3cc4c(c(C)n3)OCc3c(N5CCOCC5)ccnc3N4)C2)CC1 [Compound 313] | – | – | – | 0.0471 µM | – | 5370 nM | 2.02e-05 s⁻¹ | 427 M⁻¹ s⁻¹ | 77.6 nM | – | – |
| C=CC(=O)N1CC(N2CCC(c3cc4c(c(C)n3)OCc3c(-c5cnn(C)c5)ccnc3N4)CC2)C1 [Compound 314] | <5 | 3.945e-05 s⁻¹ | 602.565 M⁻¹ s⁻¹ | 0.0655 µM | 7.14 | – | – | – | – | – | – |
| C=CC(=O)N1CC(N2CC(c3cc4c(c(C(F)(F)F)n3)OCc3c(N5CCOCC5)ccnc3N4)C2)C1 [Compound 315] | 5.3 | – | – | – | 7.25 | – | – | – | – | 894.649 M⁻¹ s⁻¹ | – |
| C=CC(=O)N1CCC(N2CC(c3cc4c(c(C)n3)OCc3c(-c5cnn(C)c5)ccnc3N4)C2)CC1 [Compound 316] | 5.32 | 2.255e-05 s⁻¹ | 251.248 M⁻¹ s⁻¹ | 0.0898 µM | 6.97 | – | – | – | – | – | – |
| C=CC(=O)N1CC(N2CC(c3cc4c(c(C5CC5)n3)OCc3c(N5CCOCC5)ccnc3N4)C2)C1 [Compound 317] | – | – | – | – | – | > 10000 nM | – | – | 60.3 nM | – | 1060 M⁻¹ s⁻¹ |
| CC#CC(=O)N1CC(N2CC(c3cc4c(c(C5CC5)n3)OCc3c(N5CCOCC5)ccnc3N4)C2)C1 [Compound 318] | – | – | – | 0.0441 µM | – | > 10000 nM | 6.19e-05 s⁻¹ | 1400 M⁻¹ s⁻¹ | 324 nM | – | – |
| C=CC(=O)N1CC(N2CCC(c3cc4c(c(C#N)n3)OCc3c(C5CCOCC5)ccnc3N4)CC2)C1 [Compound 322] | – | – | – | – | – | 9550 nM | – | – | 79.4 nM | – | 740 M⁻¹ s⁻¹ |
| CC#CC(=O)N1CCC(N2CCC(c3cc4c(c(C)n3)OCc3c(N5CCOCC5)ccnc3N4)CC2)CC1 [Compound 325] | – | – | – | – | – | 4170 nM | – | – | < 9.77 nM | – | 1280 M⁻¹ s⁻¹ |
| CC#CC(=O)N1CC(n2cc(-c3cc(C)c4c(c3)Nc3nccc(N5CCOCC5)c3CO4)cn2)C1 [Compound 333] | – | – | – | 0.11 µM | – | 6760 nM | 2.12e-05 s⁻¹ | 193 M⁻¹ s⁻¹ | 178 nM | – | – |
